Results reported in patent publication US8288111B2 (Abbott Laboratories, priority 2007, dated 2012).

What was measured:
[1] = test system: cyclosporine antibody; test: Dade RxLFlex cyclosporine assay cross-reactivity; type: binding; conditions: 200 ng/mL cyclosporine; metabolite 1000 ng/mL
[2] = test system: anti-CsA monoclonal antibody; test: Abbott AxSYM CsA immunoassay (FPIA) cross-reactivity; type: binding, mouse; conditions: 200 ng/mL cyclosporine; metabolite 250 ng/mL
Description: (§1) Antibody. The anti-CsA monoclonal antibody used in the […]® assay is immobilized on Goat Anti-Mouse (GAM) antibody coated magnetic microparticles. The same anti-CsA antibody is used in soluble form in the Abbott TDx and AxSYM® assays (Abbott Laboratories, Abbott Park, Ill.). Soluble mouse anti-CsA antibody is added directly to GAM microparticles and non-covalent binding occurs by antibody-mediated binding. GAM antibody is passively bound to magnetic polystyrene microparticles and then treated with a water-soluble carbodiimide to fix the antibody on the particle. GAM particles can be prepared using ordinary skill in the art.
(§2) FPIA test methods. Abbott TDx Monoclonal and AxSYM® immunoassays were measured on specimens and calibrators using procedures described in the package inserts. Specimens were extracted with a combination of saponin, organic solvent and Zinc sulfate and precipitated protein was centrifuged down. The clear supernatant was tested using assay reagents (Tracer, Antibody and Assay Diluent). However, in Example 4, the different extraction (pretreatment) methods of TDx and AxSYM® were employed, but all results were generated on […]®.
Cross-reactivities for AM9 (500 ng/mL) were 12.6% for AxSYM®, 25% for CEDIA, and 6% for EMIT.

[3] = test system: anti-CsA monoclonal antibody; test: Abbott TDx Monoclonal CsA immunoassay (FPIA) cross-reactivity; type: binding, mouse; conditions: 200 ng/mL cyclosporine; metabolite 250 ng/mL
Description: as §1, §2

[4] = times greater than cyclosporine CsA; cited from earlier work

| Compound | Dade RxLFlex cross-reactivity [1] | Abbott AxSYM cross-reactivity [2] | Abbott TDx cross-reactivity [3] | in vivo potency relative to cyclosporine CsA [4] |
| --- | --- | --- | --- | --- |
| CC[C@@H]1NC(=O)[C@H]([C@H](O)[C@H](C)C/C=C/CO)N(C)C(=O)[C@H](C(C)C)N(C)C(=O)[C@H](CC(C)C)N(C)C(=O)[C@H](CC(C)(C)O)N(C)C(=O)[C@@H](C)NC(=O)[C@H](C)NC(=O)[C@H](CC(C)C)N(C)C(=O)[C@H](C(C)C)NC(=O)[C@H](CC(C)C)N(C)C(=O)CN(C)C1=O [AM19] | 2-3% | not statistically significant | not statistically significant |  |
| C=CC[C@@H]1/C=C(\C)C[C@H](C)C[C@H](OC)[C@H]2O[C@@](O)(C(=O)C(=O)N3CCCC[C@H]3C(=O)O[C@H](/C(C)=C/[C@@H]3CC[C@@H](O)[C@H](OC)C3)[C@H](C)[C@@H](O)CC1=O)[C@H](C)C[C@@H]2OC [Tacrolimus, tacrolimus] |  |  |  | 50-100 times |
